The values that follow come from paper PMC9454942, “Novel AR/AR-V7 and Mnk1/2 Degrader, VNPP433-3β: Molecular Mechanisms of Action and Efficacy in AR-Overexpressing Castration Resistant Prostate Cancer In Vitro and In Vivo Models” (Cells, 2022).

This assay has as its target T1, androgen receptor (AR) ligand binding domain (Homo sapiens, UniProt P10275).
T1 construct: recombinant human AR LBD
T1 sequence (P10275 669-920 limits assumed): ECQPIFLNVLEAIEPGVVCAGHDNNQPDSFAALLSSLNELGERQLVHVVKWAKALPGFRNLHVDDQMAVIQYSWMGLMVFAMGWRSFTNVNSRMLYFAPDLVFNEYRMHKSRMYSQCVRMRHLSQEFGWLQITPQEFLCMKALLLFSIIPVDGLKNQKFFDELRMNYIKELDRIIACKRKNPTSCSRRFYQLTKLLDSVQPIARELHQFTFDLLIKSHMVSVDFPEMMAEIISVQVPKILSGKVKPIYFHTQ
Nature of the assay: fluorescence spectroscopy titration with purified AR LBD; supported by CETSA in LNCaP cells.

SMILES strings stand for the structures.

For orientation: Kd means the concentration at which binding is half-saturated. High values mean lower affinity, low ones higher affinity. Compound `C[C@]12CC[C@H](n3ccnc3)CC1=CC[C@@H]1[C@@H]2CC[C@]2(C)C(n3cnc4ccccc43)=CC[C@@H]12` [VNPP433-3β] displayed a dissociation constant Kd of 0.36 ± 0.03 µM.
